Test results taken from the NIST ThermoML archive (doi:10.1021/acs.jced.7b00773).

Details: Liquid

C=CCn1cc[n+](C)c1.O=S(=O)([N-]S(=O)(=O)C(F)(F)F)C(F)(F)F
Details	mass density, 372.5 K [kg/m3]	mass density, 373.15 K [kg/m3]	mass density, 392.8 K [kg/m3]	mass density, 413.1 K [kg/m3]	mass density, 432.7 K [kg/m3]	viscosity, 373.15 K [mPa·s]
100 kPa, Concentric cylinders viscometry	–	–	–	–	–	5.498
100 kPa, Vibrating tube method	–	1427.3	–	–	–	–
10000 kPa, Bellows volumetry	–	–	1417.8	1399.4	1381.4	–
20000 kPa, Bellows volumetry	–	–	1427.3	1409.4	1392	–
30000 kPa, Bellows volumetry	–	–	1436.1	1418.9	1401.8	–
40000 kPa, Bellows volumetry	1461.6	–	1444.4	1427.7	1411.1	–
50000 kPa, Bellows volumetry	1469.1	–	1452.4	1436	1419.9	–
60000 kPa, Bellows volumetry	1476.1	–	1459.8	1443.8	1428	–
70000 kPa, Bellows volumetry	1482.9	–	1466.9	1451.3	1435.9	–
80000 kPa, Bellows volumetry	1489.5	–	1473.7	1458.4	1443.4	–
90000 kPa, Bellows volumetry	1495.6	–	1480.1	1465.2	1450.5	–
100000 kPa, Bellows volumetry	1501.6	–	1486.5	1471.7	1457.2	–
110000 kPa, Bellows volumetry	1507.5	–	1492.5	1478	1463.7	–
120000 kPa, Bellows volumetry	1513.3	–	1498.5	1484.2	1470.1	–
130000 kPa, Bellows volumetry	1518.7	–	1504.2	1490	1476.1	–
140000 kPa, Bellows volumetry	1524	–	1509.6	1495.8	1482	–
150000 kPa, Bellows volumetry	1529.2	–	1514.9	1501.3	1487.7	–
160000 kPa, Bellows volumetry	1534.2	–	1520.2	1506.6	1493.2	–
170000 kPa, Bellows volumetry	1539.1	–	1525.3	1511.8	1498.6	–
180000 kPa, Bellows volumetry	1544	–	1530.2	1516.9	1503.9	–
190000 kPa, Bellows volumetry	1548.6	–	1535.1	1521.8	1508.9	–
200000 kPa, Bellows volumetry	1553.4	–	1539.9	1526.8	1514	–
